Where two headings read alike, the source gives them in different places.

In this experiment the target is T1, androgen receptor (Homo sapiens, UniProt P10275, T878A).
T1 construct: host or cells: LNCaP.FGC
Description: Androgen receptor degradation assay using Western blot analysis. The format is cell-based. The procedure: Cells not treated with any of the above-mentioned compounds are used as a negative control.
The internal loading control GAPDH was detected using a mouse monoclonal antibody (1:5000) (GTX627408, GeneTex International Corp., HsinChu City, Taiwan R.O.C.) and a goat anti-mouse HRP-conjugated secondary antibody (1:5000 dilution) (C04001, Croyez Bioscience Co., Ltd., Taipei City, Taiwan R.O.C.).
AR remaining percentage was determined by the intensity difference of AR signals (each was normalized by the corresponding internal loading control GAPDH) between the protein samples from the untreated cells (100%) and those from the treated cells. “Cpd. #” indicates the compound number hereinabove.
In addition, several compounds were selected to prepare a treatment stock solutions at 100 nM in RPMI medium. The treatment stock solutions were separately serially diluted (10×) with RPMI medium for treating LNCaP.FGC cells seeded with 2×10^5 cells per well in 24-well tissue culture plates. A calibration curve was determined by the serial diluted samples for each compound, and the concentration needed for 50% AR degradation (AR DC50) for each compound was calculated.
(In western blotting, separated proteins are transferred to a membrane and probed.)

[1] abbreviates: 24 h, read-out: Androgen Receptor Remaining (%), LNCaP.FGC cells, 100 nM, 24 hr, normalized to GAPDH, untreated cells = 100%.
The mark [2] stands for this setting: read-out: AR DC50 (concentration needed for 50% AR degradation); LNCaP.FGC cells, serial 10x dilutions from 100 nM.
Setting [3] is: 24 h, LNCaP.FGC cells, 100 nM, 24 hr, normalized to GAPDH, untreated cells = 100%; read-out: Androgen Receptor Remaining (%).
[4] abbreviates: LNCaP.FGC cells, serial 10x dilutions from 100 nM; read-out: AR DC50 (concentration needed for 50% AR degradation).

T1 sequence (P10275 whole entry T878A): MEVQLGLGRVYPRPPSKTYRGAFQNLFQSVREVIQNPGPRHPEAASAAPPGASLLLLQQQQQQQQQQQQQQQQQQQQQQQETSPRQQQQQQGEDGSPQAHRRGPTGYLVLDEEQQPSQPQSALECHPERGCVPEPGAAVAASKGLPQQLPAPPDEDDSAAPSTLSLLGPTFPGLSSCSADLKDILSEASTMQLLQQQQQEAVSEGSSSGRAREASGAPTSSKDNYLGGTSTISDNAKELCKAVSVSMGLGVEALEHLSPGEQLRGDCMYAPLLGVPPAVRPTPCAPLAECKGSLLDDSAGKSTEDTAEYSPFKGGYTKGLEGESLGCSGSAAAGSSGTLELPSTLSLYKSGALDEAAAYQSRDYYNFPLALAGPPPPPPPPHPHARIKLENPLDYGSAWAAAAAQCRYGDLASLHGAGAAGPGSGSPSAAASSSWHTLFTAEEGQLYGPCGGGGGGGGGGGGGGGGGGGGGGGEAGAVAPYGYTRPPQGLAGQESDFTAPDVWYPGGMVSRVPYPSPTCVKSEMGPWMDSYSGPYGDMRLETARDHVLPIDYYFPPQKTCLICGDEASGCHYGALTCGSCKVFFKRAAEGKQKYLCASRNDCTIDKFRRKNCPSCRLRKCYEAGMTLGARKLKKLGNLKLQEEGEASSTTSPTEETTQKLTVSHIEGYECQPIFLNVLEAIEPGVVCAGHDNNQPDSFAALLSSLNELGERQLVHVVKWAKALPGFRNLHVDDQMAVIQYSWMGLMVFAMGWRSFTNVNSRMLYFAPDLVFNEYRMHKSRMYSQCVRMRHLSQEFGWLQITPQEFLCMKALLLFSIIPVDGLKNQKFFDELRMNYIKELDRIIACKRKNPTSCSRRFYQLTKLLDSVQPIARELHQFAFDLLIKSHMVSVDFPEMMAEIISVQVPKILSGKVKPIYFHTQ
T1 sequence (Q96SW2 whole entry partner): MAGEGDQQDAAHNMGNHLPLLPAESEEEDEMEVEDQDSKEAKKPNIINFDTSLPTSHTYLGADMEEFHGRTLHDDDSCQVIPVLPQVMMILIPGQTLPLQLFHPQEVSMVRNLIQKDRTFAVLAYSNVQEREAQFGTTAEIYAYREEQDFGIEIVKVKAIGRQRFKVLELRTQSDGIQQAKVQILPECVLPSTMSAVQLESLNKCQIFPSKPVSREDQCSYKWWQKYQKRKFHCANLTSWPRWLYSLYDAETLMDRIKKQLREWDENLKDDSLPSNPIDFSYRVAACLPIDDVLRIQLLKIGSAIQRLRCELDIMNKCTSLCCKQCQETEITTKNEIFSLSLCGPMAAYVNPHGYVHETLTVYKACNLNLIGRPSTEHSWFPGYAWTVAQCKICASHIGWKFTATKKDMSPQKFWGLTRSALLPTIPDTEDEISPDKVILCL

Turning to `CCn1c2c(c3ccc(OCC(=O)N4CCC5(CC4)CN(c4ccc(C(=O)N[C@H]6CC[C@H](Oc7ccc(C#N)c(Cl)c7)CC6)nn4)C5)cc31)C(=O)N(C1CCC(=O)N(CO)C1=O)C2=O` (some centres unmarked) [Compound 122], under setting [1], the remaining activity at 0.1 µM stood at 33%. In addition, the DC50 under setting [2] was above 100 nM.

On to `Cn1c2c(c3ccc(OCCN4CCN(c5ccc(C(=O)N[C@H]6C(C)(C)[C@H](Oc7ccc(C#N)c(Cl)c7)C6(C)C)cc5)CC4)cc31)C(=O)N(C1CCC(=O)NC1=O)C2=O` (some centres unmarked) [Compound 1], for which the remaining activity at 0.1 µM under setting [3] was found to be 47%. For the same compound, the DC50 under setting [4] fell in the range of 10 to 25 nM. `CCn1c2c(c3ccc(OCCOC4CCC5(CC4)CN(c4ccc(C(=O)N[C@H]6CC[C@H](N(C)c7ccc(C#N)c(Cl)c7)CC6)nn4)C5)cc31)C(=O)N(C1CCC(=O)NC1=O)C2=O` (some centres unmarked) [Compound 156]: the remaining activity at 0.1 µM under setting [1] came out at 37%. For the same compound, the DC50 under setting [2] was 25 to 100 nM. For the compound `Cn1c2c(c3ccc(OC4CCN(CC5CCN(c6ccc(C(=O)N[C@H]7C(C)(C)[C@H](Oc8ccc(C#N)c(Cl)c8)C7(C)C)nn6)CC5)CC4)cc31)C(=O)N(C1CCC(=O)NC1=O)C2=O` (some centres unmarked) [Compound 221], the DC50 under setting [4] was in the range of 10 to 25 nM. On to `CCn1c2c(c3ccc(OCCCN4CCC5(CC4)CCN(c4ccc(C(=O)N[C@H]6CC[C@H](Oc7ccc(C#N)c(Cl)c7)CC6)nn4)CC5)cc31)C(=O)N(C1CCC(=O)NC1=O)C2=O` (some centres unmarked) [Compound 183], for which the DC50 under setting [2] was 10 to 25 nM. Consider `CCn1c2c(c3ccc(OCCCN4CCN(c5ccc(C(=O)N[C@H]6CC[C@H](Oc7ccc(C#N)c(Cl)c7)CC6)nn5)[C@@H](C)C4)cc31)C(=O)N(C1CCC(=O)NC1=O)C2=O` (some centres unmarked) [Compound 65], for which, under setting [1], the remaining activity at 0.1 µM came out at 32%. The DC50 under setting [2] was in the range of 25 to 100 nM. As to `CCn1c2c(c3ccc(OCCN4CCC5(CC4)CN(c4ccc(C(=O)N[C@H]6CC[C@H](Oc7ccc(C#N)c(Cl)c7)CC6)nn4)C5)cc31)C(=O)N(C1CCC(=O)NC1=O)C2=O` (some centres unmarked) [Compound 81], under setting [1], the remaining activity at 0.1 µM worked out at 9%. Also, the DC50 under setting [2] was below 10 nM. Consider `Cn1c2c(c3cc(OCCN4CCN(c5ccc(C(=O)N[C@H]6C(C)(C)[C@H](Oc7ccc(C#N)c(Cl)c7)C6(C)C)cn5)CC4)ccc31)C(=O)N(C1CCC(=O)NC1=O)C2=O` (some centres unmarked) [Compound 19], for which the remaining activity at 0.1 µM under setting [3] stood at 73%.

Consider `CCn1c2c(c3ccc(OCCOC4CCC5(CC4)CN(c4ccc(C(=O)N[C@H]6CC[C@H](Oc7ccc(C#N)c(Cl)c7)CC6)nn4)C5)cc31)C(=O)N(C1CCC(=O)NC1=O)C2=O` (some centres unmarked) [Compound 152], for which, under setting [1], the remaining activity at 0.1 µM was 45%. For the same compound, the DC50 under setting [2] was 25 to 100 nM.

As to `CCn1c2c(c3ccc(OCCN4CC5CCC(C4)N5c4ccc(C(=O)N[C@H]5CC[C@H](Oc6ccc(C#N)c(Cl)c6)CC5)nn4)cc31)C(=O)N(C1CCC(=O)NC1=O)C2=O` (some centres unmarked) [Compound 70], the remaining activity at 0.1 µM under setting [1] turned out to be 62%. The same measure, in the same setting: in the case of `CCn1c2c(c3ccc(OCC(=O)N4CCC5(CC4)CN(c4ccc(C(=O)N[C@H]6CC[C@H](N(C)c7ccc(C#N)c(Cl)c7)CC6)nn4)C5)cc31)C(=O)N(C1CCC(=O)N(CO)C1=O)C2=O` (some centres unmarked) [Compound 128] it was 63%. On to `Cn1c2c(c3cc(OCCN4CCN(c5ccc(C(=O)N[C@H]6C(C)(C)[C@H](Oc7ccc(C#N)c(Cl)c7)C6(C)C)nc5)CC4)ccc31)C(=O)N(C1CCC(=O)NC1=O)C2=O` (some centres unmarked) [Compound 10], for which the remaining activity at 0.1 µM under setting [3] stood at 37%. Besides, under setting [4], the DC50 lay within 25 to 100 nM. With `CCn1c2c(c3ccc(OC4CCN(CC5CCN(c6ccc(C(=O)N[C@H]7C(C)(C)[C@H](Oc8ccc(C#N)c(Cl)c8)C7(C)C)cc6)CC5)CC4)cc31)C(=O)N(C1CCC(=O)NC1=O)C2=O` (some centres unmarked) [Compound 214], the DC50 under setting [2] was above 100 nM.

For `CCn1c2c(c3ccc(OCCCN4CC=C(c5ccc(C(=O)N[C@H]6CC[C@H](Oc7ccc(C#N)c(Cl)c7)CC6)nn5)CC4)cc31)C(=O)N(C1CCC(=O)NC1=O)C2=O` (some centres unmarked) [Compound 190], the DC50 under setting [2] was 10 to 25 nM. As for `CCn1c2c(c3ccc(OC(=O)NC4CCN(c5ccc(C(=O)N[C@H]6CC[C@H](N(C)c7ccc(C#N)c(Cl)c7)CC6)nn5)CC4)cc31)C(=O)N(C1CCC(=O)NC1=O)C2=O` (some centres unmarked) [Compound 144], the remaining activity at 0.1 µM under setting [1] was 86%. Regarding `Cn1c2c(c3ccc(OCCCN4CCC5(CC4)CCN(c4ccc(C(=O)N[C@H]6CC[C@H](N(C)c7ccc(C#N)c(Cl)c7)CC6)nn4)CC5)cc31)C(=O)N(C1CCC(=O)NC1=O)C2=O` (some centres unmarked) [Compound 198], the DC50 under setting [2] is below 10 nM.

On to `CCn1c2c(c3ccc(OCC(=O)N4CCCN(c5ccc(C(=O)N[C@H]6CC[C@H](N(C)c7ccc(C#N)c(Cl)c7)CC6)nn5)CC4)cc31)C(=O)N(C1CCC(=O)N(CO)C1=O)C2=O` (some centres unmarked) [Compound 130], for which the remaining activity at 0.1 µM under setting [1] was found to be 51%. With `CCn1c2c(c3ccc(OCCOC4CC5(CCN(c6ccc(C(=O)N[C@H]7CC[C@H](N(C)c8ccc(C#N)c(Cl)c8)CC7)nn6)C5)C4)cc31)C(=O)N(C1CCC(=O)NC1=O)C2=O` (some centres unmarked) [Compound 164], the remaining activity at 0.1 µM under setting [1] is 31%. In addition, under setting [2], the DC50 lay within 10 to 25 nM. With `Cn1c2c(c3ccc(OCCN4CCC5(CC4)CCN(c4ccc(C(=O)N[C@H]6CC[C@H](Oc7ccc(C#N)c(Cl)c7)CC6)nn4)CC5)cc31)C(=O)N(C1CCC(=O)NC1=O)C2=O` (some centres unmarked) [Compound 195], under setting [4], the DC50 was 10 to 25 nM. As to `CCn1c2c(c3ccc(OCCOC4CC5(CCN(c6ccc(C(=O)N[C@H]7CC[C@H](Oc8ccc(C#N)c(Cl)c8)CC7)nn6)CC5)C4)cc31)C(=O)N(C1CCC(=O)NC1=O)C2=O` (some centres unmarked) [Compound 147], the remaining activity at 0.1 µM under setting [1] was 46%. Moreover, the DC50 under setting [2] lay in the range of 10 to 25 nM. The matching figures for `CCn1c2c(c3ccc(OCCN4C5CCC4CN(c4ccc(C(=O)N[C@H]6CC[C@H](Oc7ccc(C#N)c(Cl)c7)CC6)nn4)C5)cc31)C(=O)N(C1CCC(=O)NC1=O)C2=O` (some centres unmarked) [Compound 64]: 40% and 25 to 100 nM.

As to `CCn1c2c(c3ccc(OCC(=O)N4CC5(CCN(c6ccc(C(=O)N[C@H]7CC[C@H](Oc8ccc(C#N)c(Cl)c8)CC7)nn6)CC5)C4)cc31)C(=O)N(C1CCC(=O)N(CO)C1=O)C2=O` (some centres unmarked) [Compound 126], the remaining activity at 0.1 µM under setting [1] was found to be 58%.

Turning to `Cn1c2c(c3ccc(OCCCN4CCN(c5ccc(C(=O)N[C@H]6C(C)(C)[C@H](Oc7ccc(C#N)c(Cl)c7)C6(C)C)nc5)CC4)cc31)C(=O)N(C1CCC(=O)NC1=O)C2=O` (some centres unmarked) [Compound 11], the remaining activity at 0.1 µM under setting [3] came out at 73%. Take `CCn1c2c(c3cc(OCCN4CCC(C#Cc5ccc(C(=O)NC6C(C)(C)C(Oc7ccc(C#N)c(Cl)c7)C6(C)C)cc5)CC4)ccc31)C(=O)N(C1CCC(=O)NC1=O)C2=O` (centres unmarked) [Compound 139]: the remaining activity at 0.1 µM under setting [1] amounted to 52%. In addition, the DC50 under setting [2] lay within 25 to 100 nM. Consider `CCn1c2c(c3cc(OCCN4CCN(c5ccc(C(=O)N[C@H]6C(C)(C)[C@H](Oc7ccc(C#N)c(Cl)c7)C6(C)C)cc5)CC4)ccc31)C(=O)N(C1CCC(=O)NC1=O)C2=O` (some centres unmarked) [Compound 4], for which the remaining activity at 0.1 µM under setting [1] was 66%. As to `CCn1c2c(c3ccc(OCCN4C[C@H](C)N(c5ccc(C(=O)N[C@H]6CC[C@H](Oc7ccc(C#N)c(Cl)c7)CC6)nn5)C[C@H]4C)cc31)C(=O)N(C1CCC(=O)NC1=O)C2=O` (some centres unmarked) [Compound 55], the remaining activity at 0.1 µM under setting [1] turned out to be 40%. Further, the DC50 under setting [2] lay in the range of 25 to 100 nM. In the case of `Cn1c2c(c3ccc(OC4CCN(CC5CCN(c6ccc(C(=O)N[C@H]7C(C)(C)[C@@H](Oc8ccc(C#N)c(Cl)c8)C7(C)C)cn6)CC5)CC4)cc31)C(=O)N(C1CCC(=O)NC1=O)C2=O` (some centres unmarked) [Compound 222], the DC50 under setting [4] lay in the range of 10 to 25 nM. Consider `CCn1c2c(c3ccc(OCCCCN4CCN(c5ccc(C(=O)N[C@H]6CC[C@H](N(C)c7ccc(C#N)c(Cl)c7)CC6)nn5)CC4=O)cc31)C(=O)N(C1CCC(=O)NC1=O)C2=O` (some centres unmarked) [Compound 150], for which the remaining activity at 0.1 µM under setting [1] was 40%. `Cn1c2c(c3ccc(OCC4CCN(c5ccc(C(=O)N[C@H]6CC[C@H](Oc7ccc(C#N)c(Cl)c7)CC6)cn5)CC4)cc31)C(=O)N(C1CCC(=O)N(CO)C1=O)C2=O` (some centres unmarked) [Compound 34]: the remaining activity at 0.1 µM under setting [3] turned out to be 75%.

Turning to `CCn1c2c(c3ccc(OCCN4CC=C(c5ccc(C(=O)N[C@H]6CC[C@H](N(C)c7ccc(C#N)c(Cl)c7)CC6)nn5)CC4)cc31)C(=O)N(C1CCC(=O)NC1=O)C2=O` (some centres unmarked) [Compound 202], the DC50 under setting [2] is 25 to 100 nM.

As for `CCn1c2c(c3ccc(OCCCOC4CCN(c5ccc(C(=O)N[C@H]6CC[C@H](Oc7ccc(C#N)c(Cl)c7)CC6)nn5)CC4)cc31)C(=O)N(C1CCC(=O)NC1=O)C2=O` (some centres unmarked) [Compound 159], under setting [1], the remaining activity at 0.1 µM is 8%. The DC50 under setting [2] was in the range of 25 to 100 nM. In the case of `Cn1c2c(c3ccc(OCCN4CCC5(CC4)CN(c4ccc(C(=O)N[C@H]6CC[C@H](Oc7ccc(C#N)c(Cl)c7)CC6)nn4)C5)cc31)C(=O)N(C1CCC(=O)NC1=O)C2=O` (some centres unmarked) [Compound 88], under setting [3], the remaining activity at 0.1 µM stood at 10%. Moreover, the DC50 under setting [4] was in the range of 10 to 25 nM.

Turning to `CCn1c2c(c3ccc(OCCCCN4CCN(c5ccc(C(=O)N[C@H]6CC[C@H](N(C)c7ccc(C#N)c(Cl)c7)CC6)nn5)CC4)cc31)C(=O)N(C1CCC(=O)NC1=O)C2=O` (some centres unmarked) [Compound 91], the remaining activity at 0.1 µM under setting [1] is 0%. For the same compound, the DC50 under setting [2] lay in the range of 10 to 25 nM. As to `Cn1c2c(c3ccc(OCCCN4CCN(c5ccc(C(=O)N[C@H]6CC[C@H](Oc7ccc(C#N)c(Cl)c7)CC6)nn5)CC4)cc31)C(=O)N(C1CCC(=O)NC1=O)C2=O` (some centres unmarked) [Compound 39], under setting [3], the remaining activity at 0.1 µM was 16%. The DC50 under setting [4] is 10 to 25 nM.

(Values after patent publication US20250197409A1, “BIFUNCTIONAL COMPOUND AND PHARMACEUTICAL COMPOSITION COMPRISING THE BIFUNCTIONAL COMPOUND, AND METHOD FOR TREATING ANDROGEN RECEPTOR RELATED DISEASE BY USING THE SAME” (ANHORN MEDICINES CO., LTD., priority 2022, published 2025).)
